Columns and labels:
KRAS G12V = KRAS G12V (Homo sapiens (Human), UniProt P01116+P62937, G12V); test: Ras-Raf (BRAF RBD) disruption / FRET / MOA assay, KRAS G12V; assay type: biochemical; conditions: read-out: IC50* KRAS G12V FRET data
Method in brief: (§1)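 Ras:RAF disruption was scored as a fall in TR-FRET ratio relative to DMSO. Compound ranged in 3-fold steps over 10 points from 30 μM final; incubation ran 3 h at 25° C, detection antibodies a further 1.5 h. Reported as IC50.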

NCI-H358 (K-Ras G12C) = test: CellTiter-Glo cell viability assay, NCI-H358; assay type: cell-based, human; conditions: Homo sapiens, NCI-H358, 120 h, NCI-H358, 5-day treatment; class symbols; read-out: Additional H358 Cell Viability assay data (K-Ras G12C, IC50)
Method in brief: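 Luminescent viability readout on day 5 after direct compound addition to plated cells; plates sat ~30 min at room temperature before reading. Values expressed as percent of mean DMSO signal, curves fit with a four-parameter logistic model.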

KRAS WT = KRAS WT (Homo sapiens (Human), UniProt P01116+P62937); test: Ras-Raf (BRAF RBD) disruption / FRET / MOA assay, KRAS WT; assay type: biochemical; conditions: read-out: IC50* KRAS WT FRET data
Method in brief: as §1

[1] = tested on: NCI-H358 cells (K-Ras G12C); test: Potency assay: pERK in NCI-H358 cells; assay type: cell-based, human; conditions: Homo sapiens, NCI-H358; H358 KRAS G12C; read-out: pERK EC50
Method in brief: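 Compounds are dosed as ten 3-fold dilutions from a 10 mM DMSO stock, in duplicate, and left on cells for 4 h at 37 °C, 5% CO2. Phospho-ERK1/2 is then quantified by AlphaLISA SureFire Ultra or In-Cell Western, and IC50 is derived from a 4-parameter sigmoid against log concentration.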

KRAS G12S = KRAS G12S (Homo sapiens (Human), UniProt P01116+P62937, G12S); test: Ras-Raf (BRAF RBD) disruption / FRET / MOA assay, KRAS G12S; assay type: biochemical; conditions: Ras-Raf disruption/FRET/MOA assay; class symbols; read-out: KRAS G12S FRET data IC50
Method in brief: as §1

K-Ras G13C = K-Ras G13C (Homo sapiens (Human), UniProt P01116+P62937, G13C); test: Ras-Raf (BRAF RBD) disruption / FRET / MOA assay, KRAS G13C; assay type: biochemical; conditions: KRAS G13C; Ras-Raf disruption/FRET/MOA assay; read-out: IC50* KRAS G13C FRET data
Method in brief: as §1

K-Ras G12C = K-Ras G12C (Homo sapiens (Human), UniProt P01116+P62937, G12C); test: Ras-Raf (BRAF RBD) disruption / FRET / MOA assay, KRAS G12C; assay type: biochemical; conditions: KRAS G12C; Ras-Raf disruption/FRET/MOA assay; read-out: IC50* KRAS G12C FRET data
Method in brief: as §1

KRAS G13D = KRAS G13D (Homo sapiens (Human), UniProt P01116+P62937, G13D); test: Ras-Raf (BRAF RBD) disruption / FRET / MOA assay, KRAS G13D; assay type: biochemical; conditions: read-out: IC50* KRAS G13D FRET data
Method in brief: as §1

NRAS G12C = NRAS G12C (Homo sapiens (Human), UniProt P01111+P62937, G12C); test: Ras-Raf (BRAF RBD) disruption / FRET / MOA assay, NRAS G12C; assay type: biochemical; conditions: read-out: IC50* NRAS G12C FRET data
Method in brief: as §1

KRAS G12D = KRAS G12D (Homo sapiens (Human), UniProt P01116+P62937, G12D); test: Ras-Raf (BRAF RBD) disruption / FRET / MOA assay, KRAS G12D; assay type: biochemical; conditions: Ras-Raf disruption/FRET/MOA assay; class symbols; read-out: KRAS G12D FRET data IC50
Method in brief: as §1

Chain of KRAS G13D (P01116-2 other isoform, or with tags, fused parts or gaps G13D): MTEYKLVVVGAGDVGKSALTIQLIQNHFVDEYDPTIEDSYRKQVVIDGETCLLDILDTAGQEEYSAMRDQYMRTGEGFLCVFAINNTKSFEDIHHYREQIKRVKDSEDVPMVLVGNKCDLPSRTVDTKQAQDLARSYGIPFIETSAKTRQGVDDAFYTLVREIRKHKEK
Chain of KRAS G13D (P62937 whole entry): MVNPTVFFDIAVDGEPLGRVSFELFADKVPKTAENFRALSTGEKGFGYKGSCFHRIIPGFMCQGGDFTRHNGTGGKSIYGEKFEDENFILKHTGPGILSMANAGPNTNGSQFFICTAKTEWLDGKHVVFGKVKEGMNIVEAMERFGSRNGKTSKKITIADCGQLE
Chain of KRAS G12S (P01116-2 other isoform, or with tags, fused parts or gaps G12S): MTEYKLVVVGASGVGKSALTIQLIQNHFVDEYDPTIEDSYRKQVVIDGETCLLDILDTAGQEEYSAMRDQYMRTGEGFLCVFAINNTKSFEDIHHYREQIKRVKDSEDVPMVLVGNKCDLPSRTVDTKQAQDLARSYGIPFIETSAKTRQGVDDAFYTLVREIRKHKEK
Chain of KRAS G12S (P62937 whole entry): as the sequence (P62937 whole entry) above
Chain of KRAS G12V (P01116-2 other isoform, or with tags, fused parts or gaps G12V): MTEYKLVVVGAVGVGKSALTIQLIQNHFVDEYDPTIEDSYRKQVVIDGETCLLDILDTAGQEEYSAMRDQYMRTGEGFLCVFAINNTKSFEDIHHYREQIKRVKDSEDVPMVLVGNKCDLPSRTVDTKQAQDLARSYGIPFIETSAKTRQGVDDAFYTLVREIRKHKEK
Chain of KRAS G12V (P62937 whole entry): as the sequence (P62937 whole entry) above
Chain of K-Ras G13C (P01116-2 other isoform, or with tags, fused parts or gaps G13C): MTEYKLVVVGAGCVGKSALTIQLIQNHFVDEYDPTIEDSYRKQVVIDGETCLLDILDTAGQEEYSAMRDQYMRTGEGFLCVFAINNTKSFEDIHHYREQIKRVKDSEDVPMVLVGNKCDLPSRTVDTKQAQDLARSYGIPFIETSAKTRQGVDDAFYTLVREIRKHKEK
Chain of K-Ras G13C (P62937 whole entry): as the sequence (P62937 whole entry) above
Chain of K-Ras G12C (P01116-2 other isoform, or with tags, fused parts or gaps G12C): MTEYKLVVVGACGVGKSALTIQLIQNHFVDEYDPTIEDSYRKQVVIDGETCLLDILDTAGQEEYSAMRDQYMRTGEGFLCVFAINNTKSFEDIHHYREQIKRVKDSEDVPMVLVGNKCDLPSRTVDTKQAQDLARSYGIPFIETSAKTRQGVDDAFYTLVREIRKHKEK
Chain of K-Ras G12C (P62937 whole entry): as the sequence (P62937 whole entry) above
Chain of NRAS G12C (P01111 whole entry G12C): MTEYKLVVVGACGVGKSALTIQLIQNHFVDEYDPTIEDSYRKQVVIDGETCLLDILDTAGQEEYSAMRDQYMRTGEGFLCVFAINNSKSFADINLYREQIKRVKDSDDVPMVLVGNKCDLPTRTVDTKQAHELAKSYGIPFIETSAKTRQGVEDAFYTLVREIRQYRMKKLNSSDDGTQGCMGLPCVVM
Chain of NRAS G12C (P62937 whole entry): as the sequence (P62937 whole entry) above
Chain of KRAS WT (P01116-2 other isoform, or with tags, fused parts or gaps): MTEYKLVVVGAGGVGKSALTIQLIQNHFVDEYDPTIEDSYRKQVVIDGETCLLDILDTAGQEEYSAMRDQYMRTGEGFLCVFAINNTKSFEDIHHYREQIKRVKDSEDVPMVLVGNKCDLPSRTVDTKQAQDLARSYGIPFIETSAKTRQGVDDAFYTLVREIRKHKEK
Chain of KRAS WT (P62937 whole entry): as the sequence (P62937 whole entry) above
Chain of KRAS G12D (P01116-2 other isoform, or with tags, fused parts or gaps G12D): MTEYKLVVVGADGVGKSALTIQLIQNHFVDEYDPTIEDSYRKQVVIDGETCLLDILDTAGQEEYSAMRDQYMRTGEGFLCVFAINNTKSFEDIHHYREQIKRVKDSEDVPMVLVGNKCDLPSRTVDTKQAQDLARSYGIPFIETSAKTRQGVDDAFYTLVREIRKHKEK
Chain of KRAS G12D (P62937 whole entry): as the sequence (P62937 whole entry) above

Row | IC50 (KRAS G12V) [nM] | IC50 (NCI-H358 (K-Ras G12C)) [nM] | IC50 (KRAS WT) [nM] | EC50 [1] [nM] | IC50 (KRAS G12S) [nM] | IC50 (K-Ras G13C) [nM] | IC50 (K-Ras G12C) [nM] | IC50 (KRAS G13D) [nM] | IC50 (NRAS G12C) [nM] | IC50 (KRAS G12D) [nM] | Structure (SMILES)
1 | 1000 to 10000 | > 1000 | > 10000 | < 5000 | > 10000 | 1000 to 10000 | 1000 to 10000 | > 10000 | 1000 to 10000 | > 10000 | CCn1c(-c2cccnc2[C@H](C)OC)c2c3cc(ccc31)-c1cccc(c1)C[C@H](NC(=O)[C@H](C(C)C)N(C)C(=O)[C@H]1CCN(S(=O)(=O)C=C(C)C)C1)C(=O)N1CCC[C@H](N1)C(=O)OCC(C)(C)C2 (atropisomer, axis not shown) [Example A307]
2 | 1000 to 10000 | 10 to 100 | 1000 to 10000 | < 5000 | 1000 to 10000 | 1000 to 10000 | 100 to 1000 | > 10000 | 100 to 1000 | > 10000 | CC#CC(=O)N1CC[C@H](C(=O)N(C)[C@H](C(=O)N[C@H]2Cc3cccc(c3)-c3ccc4c(c3)c(c(-c3cccnc3[C@H](C)OC)n4CC)CC(C)(C)COC(=O)[C@@H]3CCCN(N3)C2=O)C2CCCC2)C1 (atropisomer, axis not shown) [Example A310]
3 | 10 to 100 | 10 to 100 | 10 to 100 | < 5000 | 10 to 100 | 10 to 100 | 10 to 100 | 10 to 100 | 10 to 100 | 10 to 100 | C=CC(=O)N1C[C@@H]2[C@H](C1)[C@@H]2C(=O)N(C)[C@H](C(=O)N[C@H]1Cc2cc(O)cc(c2)-c2ccc3c(c2)c(c(-c2cccnc2[C@H](C)OC)n3CC)CC(C)(C)COC(=O)[C@@H]2CCCN(N2)C1=O)C(C)C (atropisomer, axis not shown) [Example A319]
4 | > 10000 | < 10 | > 10000 | < 5000 | > 10000 | 100 to 1000 | < 10 | > 10000 | < 10 | > 10000 | CCn1c(-c2cccnc2[C@H](C)OC)c2c3cc(ccc31)-c1csc(n1)C[C@H](NC(=O)[C@H](C(C)C)N1CCC3(CN(C(=O)C#CC(C)(C)N(C)C)C3)C1=O)C(=O)N1CCC[C@H](N1)C(=O)OCC(C)(C)C2 (atropisomer, axis not shown) [Example A323]
5 | 1000 to 10000 | < 10 | 1000 to 10000 | < 5000 | 1000 to 10000 | 100 to 1000 | < 10 | > 10000 | < 10 | > 10000 | CCn1c(-c2cccnc2[C@H](C)OC)c2c3cc(ccc31)-c1cccc(c1)C[C@H](NC(=O)[C@H](C(C)C)N1CCC3(CN(C(=O)C#CC(C)(C)N(C)C)C3)C1=O)C(=O)N1CCC[C@H](N1)C(=O)OCC(C)(C)C2 (atropisomer, axis not shown) [Example A324]
6 | 1000 to 10000 | < 10 | 1000 to 10000 | < 5000 | 1000 to 10000 | 1000 to 10000 | < 10 | 1000 to 10000 | < 10 | 1000 to 10000 | CCn1c(-c2cccnc2[C@H](C)OC)c2c3cc(ccc31)-c1cccc(c1)C[C@H](NC(=O)[C@H](C(C)C)N(C)C(=O)[C@H]1CCN(C(=O)C#CC(C)(C)N3CCCC3)C1)C(=O)N1CCC[C@H](N1)C(=O)OCC(C)(C)C2 (atropisomer, axis not shown) [Example A326]
7 | 1000 to 10000 | < 10 | 1000 to 10000 | < 5000 | 1000 to 10000 | 10 to 100 | 10 to 100 | 1000 to 10000 | 10 to 100 | 1000 to 10000 | C=CC(=O)N1C[C@@H](F)[C@](F)(C(=O)N(C)[C@H](C(=O)N[C@H]2Cc3cccc(c3)-c3ccc4c(c3)c(c(-c3cccnc3[C@H](C)OC)n4CC)CC(C)(C)COC(=O)[C@@H]3CCCN(N3)C2=O)C(C)C)C1 (atropisomer, axis not shown) [Example A396]

The remaining lines, values behind:

Row | Structure (SMILES) | IC50 (KRAS G12V) [nM] | IC50 (NCI-H358 (K-Ras G12C)) [nM] | IC50 (KRAS WT) [nM] | EC50 [1] [nM] | IC50 (KRAS G12S) [nM] | IC50 (K-Ras G13C) [nM] | IC50 (K-Ras G12C) [nM] | IC50 (KRAS G13D) [nM] | IC50 (NRAS G12C) [nM] | IC50 (KRAS G12D) [nM]
8 | CC#CC(=O)N1CC[C@H](C(=O)N(C)[C@H](C(=O)N[C@H]2Cc3nc(cs3)-c3ccc4c(c3)c(c(-c3cccnc3[C@H](C)OC)n4CC)CC(C)(C)COC(=O)[C@@H]3CCCN(N3)C2=O)C2CCCC2)C1 (atropisomer, axis not shown) [Example A309] | 1000 to 10000 | < 10 | 1000 to 10000 | < 5000 | 1000 to 10000 | 1000 to 10000 | 1000 to 10000 | > 10000 | 1000 to 10000 | > 10000
9 | C=CC(=O)N1CC[C@H](C(=O)N(C)[C@H](C(=O)N[C@H]2Cc3cccc(c3)-c3ccc4c(c3)c(c(-c3cccnc3[C@H](C)OC)n4CC)CC(C)(C)COC(=O)[C@@H]3CCCN(N3)C2=O)C2CC2)C1 (atropisomer, axis not shown) [Example A320] | 1000 to 10000 | 10 to 100 | 1000 to 10000 | < 5000 | 1000 to 10000 | 1000 to 10000 | 100 to 1000 | > 10000 | 100 to 1000 | > 10000
10 | C=CC(=O)N1CC[C@H](C(=O)N(C)[C@H](C(=O)N[C@H]2Cc3cccc(c3)-c3ccc4c(c3)c(c(-c3cccnc3[C@H](C)OC)n4CC)CC(C)(C)COC(=O)[C@@H]3CCCN(N3)C2=O)C2CCC2)C1 (atropisomer, axis not shown) [Example A321] | 1000 to 10000 | 10 to 100 | 1000 to 10000 | < 5000 | 1000 to 10000 | 1000 to 10000 | 100 to 1000 | 1000 to 10000 | 100 to 1000 | > 10000
11 | CCn1c(-c2cccnc2[C@H](C)OC)c2c3cc(ccc31)-c1csc(n1)C[C@H](NC(=O)[C@H](C(C)C)N1CCC3(CCN(C(=O)C#CC(C)(C)N(C)C)CC3)C1=O)C(=O)N1CCC[C@H](N1)C(=O)OCC(C)(C)C2 (atropisomer, axis not shown) [Example A322] | > 10000 | < 10 | > 10000 | < 5000 | > 10000 | 100 to 1000 | < 10 | > 10000 | 10 to 100 | > 10000
12 | C=CC(=O)N1CC[C@H](C(=O)N(C)[C@H](C(=O)N[C@H]2Cc3cccc(c3F)-c3ccc4c(c3)c(c(-c3cccnc3[C@H](C)OC)n4CC)CC(C)(C)COC(=O)[C@@H]3CCCN(N3)C2=O)C(C)C)C1 (atropisomer, axis not shown) [Example A327] | > 10000 | 10 to 100 | > 10000 | < 5000 | 1000 to 10000 | 1000 to 10000 | 100 to 1000 | > 10000 | 100 to 1000 | > 10000
13 | C=CC(=O)N1CCN(C(=O)N(C)[C@H](C(=O)N[C@H]2Cc3nc(cs3)-c3ccc4c(c3)c(c(-c3cccnc3[C@H](C)OC)n4CC)CC(C)(C)COC(=O)[C@@H]3CCCN(N3)C2=O)C(C)C)C2(CC2)C1 (atropisomer, axis not shown) [Example A395] | 100 to 1000 | < 10 | 100 to 1000 | < 5000 | 100 to 1000 | 100 to 1000 | 100 to 1000 | 100 to 1000 | 100 to 1000 | 1000 to 10000
